In paper PMC6010128, “Structure–activity relationship investigation of tertiary amine derivatives of cinnamic acid as acetylcholinesterase and butyrylcholinesterase inhibitors: compared with that of phenylpropionic acid, sorbic acid and hexanoic acid” (Journal of Enzyme Inhibition and Medicinal Chemistry, 2018):
Read-outs that look alike come from different tables or passages of the source.

Legend:
[1] = pKa by pH-titration method; format: physicochemical
Method: pKa is determined by pH-titration method according to the report. The titration curve E vs. VT was recorded and pKa value was calculated.

AChE = AChE (Rattus norvegicus, UniProt P37136); assay: biochemical
[2] = Log P by shake flask method; format: physicochemical; conditions: octanol / PBS pH = 7.4, shake flask
Method: Log P is defined as the logarithm of octanol–water partition coefficient. […] Ultraviolet spectrophotometry was applied to determine the concentration of compounds. Log p values were calculated based on the data in triplicate.

BChE = BChE (Rattus norvegicus, UniProt Q9JKC1); assay: biochemical; parameters: species or system Sprague–Dawley rat
[3] = rat brain AChE, Mean ± SD, triplicate
[4] = rat serum BChE, Mean ± SD, triplicate

Chain of BChE (Q9JKC1 24-597): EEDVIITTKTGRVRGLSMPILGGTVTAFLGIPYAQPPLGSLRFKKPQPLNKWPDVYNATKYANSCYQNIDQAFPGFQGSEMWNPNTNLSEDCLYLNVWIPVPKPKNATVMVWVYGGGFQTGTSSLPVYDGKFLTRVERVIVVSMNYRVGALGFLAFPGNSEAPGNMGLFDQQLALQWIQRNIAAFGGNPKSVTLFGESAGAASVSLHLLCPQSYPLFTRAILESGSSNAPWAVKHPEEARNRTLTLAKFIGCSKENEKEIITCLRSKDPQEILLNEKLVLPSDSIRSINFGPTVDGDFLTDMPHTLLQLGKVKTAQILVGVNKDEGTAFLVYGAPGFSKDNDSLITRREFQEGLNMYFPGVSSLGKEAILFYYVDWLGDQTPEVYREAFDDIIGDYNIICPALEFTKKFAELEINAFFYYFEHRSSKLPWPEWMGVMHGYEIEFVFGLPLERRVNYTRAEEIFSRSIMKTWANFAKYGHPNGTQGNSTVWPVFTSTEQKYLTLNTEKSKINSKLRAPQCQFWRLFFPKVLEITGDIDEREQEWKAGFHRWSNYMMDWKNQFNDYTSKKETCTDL
Chain of AChE (P37136 32-614): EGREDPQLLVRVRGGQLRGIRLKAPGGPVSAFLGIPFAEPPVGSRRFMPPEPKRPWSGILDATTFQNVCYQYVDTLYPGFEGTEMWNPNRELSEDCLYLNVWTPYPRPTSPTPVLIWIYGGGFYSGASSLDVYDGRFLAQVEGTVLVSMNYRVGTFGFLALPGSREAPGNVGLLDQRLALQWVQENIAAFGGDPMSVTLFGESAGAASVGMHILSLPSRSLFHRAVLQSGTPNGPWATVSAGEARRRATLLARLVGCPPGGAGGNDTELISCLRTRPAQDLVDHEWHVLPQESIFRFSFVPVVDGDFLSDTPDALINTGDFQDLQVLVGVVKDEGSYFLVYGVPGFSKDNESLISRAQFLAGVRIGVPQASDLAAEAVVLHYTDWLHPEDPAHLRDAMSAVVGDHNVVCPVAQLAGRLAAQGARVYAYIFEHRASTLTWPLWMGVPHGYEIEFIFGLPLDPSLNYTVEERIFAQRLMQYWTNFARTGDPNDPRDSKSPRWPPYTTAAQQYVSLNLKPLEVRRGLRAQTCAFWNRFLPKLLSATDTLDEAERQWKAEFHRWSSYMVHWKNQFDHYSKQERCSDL

C/C=C/C=C/C(=O)Nc1ccccc1OCCN(CC)CC [Compound 16e]
pKa ([1]; read-out: pKa): 7.53 | IC50 (AChE; [3]): > 500 µM | logP [2]: 2.18 | IC50 (BChE; [4]): 91.8 ± 1.45 µM

C/C=C/C=C/C(=O)Nc1ccccc1OCCN1CCCCC1 [Compound 16f]
pKa ([1]; read-out: pKa): 6.86 | Selectivity for AChE (AChE; IC50 (BChE)/IC50 (AChE)): 0.16 | IC50 (AChE; [3]): 170 ± 4.11 µM | logP [2]: 0.67 | IC50 (BChE; [4]): 27.7 ± 1.29 µM

C/C=C/C=C/C(=O)Nc1ccccc1OCCN1CCCC1 [Compound 16g]
pKa ([1]; read-out: pKa): 7.32 | Selectivity for AChE (AChE; IC50 (BChE)/IC50 (AChE)): 0.08 | IC50 (AChE; [3]): 278 ± 4.58 µM | logP [2]: 0.97 | IC50 (BChE; [4]): 21.9 ± 0.99 µM

C/C=C/C=C/C(=O)Nc1cccc(OCCN(C)C)c1 [Compound 17d]
pKa ([1]; read-out: pKa): 7.23 | Selectivity for AChE (AChE; IC50 (BChE)/IC50 (AChE)): 0.96 | IC50 (AChE; [3]): 52.47 ± 0.39 µM | logP [2]: 0.99 | IC50 (BChE; [4]): 50.43 ± 0.46 µM

C/C=C/C=C/C(=O)Nc1cccc(OCCN(CC)CC)c1 [Compound 17e]
pKa ([1]; read-out: pKa): 7.58 | Selectivity for AChE (AChE; IC50 (BChE)/IC50 (AChE)): 0.81 | IC50 (AChE; [3]): 98.7 ± 1.89 µM | logP [2]: 1.72 | IC50 (BChE; [4]): 79.5 ± 1.43 µM

C/C=C/C=C/C(=O)Nc1cccc(OCCN2CCCCC2)c1 [Compound 17f]
pKa ([1]; read-out: pKa): 7.17 | Selectivity for AChE (AChE; IC50 (BChE)/IC50 (AChE)): 0.76 | IC50 (AChE; [3]): 44.2 ± 1.36 µM | logP [2]: 2.23 | IC50 (BChE; [4]): 33.6 ± 1.59 µM

C/C=C/C=C/C(=O)Nc1cccc(OCCN2CCCC2)c1 [Compound 17g]
pKa ([1]; read-out: pKa): 7.06 | Selectivity for AChE (AChE; IC50 (BChE)/IC50 (AChE)): 1.51 | IC50 (AChE; [3]): 18.8 ± 0.63 µM | logP [2]: 1.41 | IC50 (BChE; [4]): 28.5 ± 1.24 µM

C/C=C/C=C/C(=O)Nc1ccc(OCCN(C)C)cc1 [Compound 18d]
pKa ([1]; read-out: pKa): 7.21 | Selectivity for AChE (AChE; IC50 (BChE)/IC50 (AChE)): 17.5 | IC50 (AChE; [3]): 12.6 ± 0.89 µM | logP [2]: 1.79 | IC50 (BChE; [4]): 222 ± 8.63 µM

C/C=C/C=C/C(=O)Nc1ccc(OCCN(CC)CC)cc1 [Compound 18e]
pKa ([1]; read-out: pKa): 7.16 | Selectivity for AChE (AChE; IC50 (BChE)/IC50 (AChE)): 0.50 | IC50 (AChE; [3]): 189 ± 4.55 µM | logP [2]: 1.31 | IC50 (BChE; [4]): 94.5 ± 4.26 µM

C/C=C/C=C/C(=O)Nc1ccc(OCCN2CCCCC2)cc1 [Compound 18f]
pKa ([1]; read-out: pKa): 7.06 | Selectivity for AChE (AChE; IC50 (BChE)/IC50 (AChE)): 22.1 | IC50 (AChE; [3]): 12.3 ± 0.76 µM | logP [2]: 1.61 | IC50 (BChE; [4]): 271 ± 4.56 µM

C/C=C/C=C/C(=O)Nc1ccc(OCCN2CCCC2)cc1 [Compound 18g]
pKa ([1]; read-out: pKa): 7.73 | Selectivity for AChE (AChE; IC50 (BChE)/IC50 (AChE)): 8.63 | IC50 (AChE; [3]): 13.6 ± 1.24 µM | logP [2]: 1.18 | IC50 (BChE; [4]): 118 ± 6.79 µM

CCCCCC(=O)Nc1ccccc1OCCN(C)C [Compound 22d]
pKa [1]: 7.32 | IC50 (AChE): 186 ± 8.22 µM | Selectivity for AChE (AChE): 0.14 | Log P [2]: 1.23 | IC50 (BChE): 26.6 ± 1.36 µM

CCCCCC(=O)Nc1ccccc1OCCN(CC)CC [Compound 22e]
pKa ([1]; read-out: pKa): 7.08 | Selectivity for AChE (AChE; IC50 (BChE)/IC50 (AChE)): <0.07 | IC50 (AChE; [3]): > 500 µM | logP [2]: 1.67 | IC50 (BChE; [4]): 37.2 ± 2.24 µM

CCCCCC(=O)Nc1ccccc1OCCN1CCCCC1 [Compound 22f]
pKa ([1]; read-out: pKa): 6.99 | Selectivity for AChE (AChE; IC50 (BChE)/IC50 (AChE)): 0.03 | IC50 (AChE; [3]): 325 ± 7.65 µM | logP [2]: 1.11 | IC50 (BChE; [4]): 9.04 ± 0.27 µM

CCCCCC(=O)Nc1ccccc1OCCN1CCCC1 [Compound 22g]
pKa ([1]; read-out: pKa): 7.16 | Selectivity for AChE (AChE; IC50 (BChE)/IC50 (AChE)): <0.04 | IC50 (AChE; [3]): > 500 µM | logP [2]: 1.11 | IC50 (BChE; [4]): 18.6 ± 0.32 µM

CCCCCC(=O)Nc1cccc(OCCN(C)C)c1 [Compound 23d]
pKa ([1]; read-out: pKa): 6.52 | Selectivity for AChE (AChE; IC50 (BChE)/IC50 (AChE)): 0.13 | IC50 (AChE; [3]): 60.6 ± 2.18 µM | logP [2]: 0.37 | IC50 (BChE; [4]): 7.89 ± 0.89 µM

CCCCCC(=O)Nc1cccc(OCCN(CC)CC)c1 [Compound 23e]
pKa ([1]; read-out: pKa): 7.15 | Selectivity for AChE (AChE; IC50 (BChE)/IC50 (AChE)): 0.01 | IC50 (AChE; [3]): 125 ± 4.23 µM | logP [2]: 0.93 | IC50 (BChE; [4]): 0.67 ± 0.04 µM

CCCCCC(=O)Nc1cccc(OCCN2CCCCC2)c1 [Compound 23f]
pKa ([1]; read-out: pKa): 7.32 | Selectivity for AChE (AChE; IC50 (BChE)/IC50 (AChE)): 0.002 | IC50 (AChE; [3]): 76.7 ± 3.17 µM | logP [2]: 1.55 | IC50 (BChE; [4]): 0.22 ± 0.02 µM

CCCCCC(=O)Nc1cccc(OCCN2CCCC2)c1 [Compound 23g]
pKa ([1]; read-out: pKa): 7.69 | Selectivity for AChE (AChE; IC50 (BChE)/IC50 (AChE)): 0.01 | IC50 (AChE; [3]): 50.7 ± 2.66 µM | logP [2]: 1.37 | IC50 (BChE; [4]): 0.34 ± 0.01 µM

CCCCCC(=O)Nc1ccc(OCCN(C)C)cc1 [Compound 24d]
pKa ([1]; read-out: pKa): 7.16 | Selectivity for AChE (AChE; IC50 (BChE)/IC50 (AChE)): 0.81 | IC50 (AChE; [3]): 41.7 ± 2.89 µM | logP [2]: 0.72 | IC50 (BChE; [4]): 33.8 ± 4.21 µM

CCCCCC(=O)Nc1ccc(OCCN(CC)CC)cc1 [Compound 24e]
pKa ([1]; read-out: pKa): 7.48 | Selectivity for AChE (AChE; IC50 (BChE)/IC50 (AChE)): <0.02 | IC50 (AChE; [3]): > 500 µM | logP [2]: 1.1 | IC50 (BChE; [4]): 9.9 ± 1.28 µM

CCCCCC(=O)Nc1ccc(OCCN2CCCCC2)cc1 [Compound 24f]
pKa ([1]; read-out: pKa): 7.16 | Selectivity for AChE (AChE; IC50 (BChE)/IC50 (AChE)): 0.54 | IC50 (AChE; [3]): 31.7 ± 2.74 µM | logP [2]: 1.54 | IC50 (BChE; [4]): 17 ± 2.03 µM

CCCCCC(=O)Nc1ccc(OCCN2CCCC2)cc1 [Compound 24g]
pKa ([1]; read-out: pKa): 6.92 | Selectivity for AChE (AChE; IC50 (BChE)/IC50 (AChE)): 0.82 | IC50 (AChE; [3]): 16.9 ± 0.91 µM | logP [2]: 0.16 | IC50 (BChE; [4]): 13.9 ± 1.66 µM

CCN(C)C(=O)Oc1cccc([C@H](C)N(C)C)c1 [Rivastigmine, reference compound]
pKa ([1]; read-out: pKa): 5.93 | logP [2]: 1.68
